From patent publication US12371453B2, “Polypeptide having antibacterial activity, composition for preventing or treating sepsis comprising same, and antibacterial composition” (priority 2019, dated 2025)
Where two headings read alike, the source gives them in different places. Square brackets hold non-standard residues; d marks the D form. Peptide text beside a SMILES is read from it.

How the values were obtained:
[1] = system: Carbapenem resistant (CR)-Acinetobactor baumannii; experiment: organism not typed
Description: (§1) The antibacterial activity was evaluated according to an antibacterial activity test method for measuring the minimum inhibitory concentration 50 (MIC50; the minimal concentration that kills 50% of bacteria).
(§2) More specifically, 100 μL of a medium was dispensed into each well of a 96-well plate, and in the first column, an antibiotic and a peptide in 200 μL of the medium were dispensed. 1/2 serial dilution was performed from columns 1 to 11 and five types of antibiotic-resistant bacteria (ESBL-resistant E. coli, carbapenem-resistant A. baumannii, carbapenem-resistant Klebsiella pneumoniae, carbapenem-resistant Pseudomonas aeruginosa, colistin-resistant Acinetobactor baumannii), which had been previously cultured, were diluted (OD600 nm value in dilution: approximately 0.0025) and dispensed into each well. The plate was incubated in a 37° C. incubator for 4 hours, and measured at OD600 nm.

[2] = system: Colistin resistant AB (Acinetobactor baumannii)
Description: as §1, §2

ESBL (E. coli) = system: ESBL (E. coli)
Description: as §1, §2

CR-Klebsiella pneumoniae = system: CR-Klebsiella pneumoniae
Description: as §1, §2

[3] = system: Salmonela typhimurium (ATCC 53648); experiment: microbe, parasite or virus in culture; settings: Salmonella enterica
Description: (§3) To compare the antibacterial activity between the four commercially available antibiotics (ampicillin, gentamicin, levofloxacin and imipenem) and the allD FP13-NH2 (AcOH) peptide, an antibacterial activity test was performed to measure the minimum inhibitory concentrations (MIC50 and MIC80) for gram-negative and gram-positive standard strains (Escherichia coli DH5α, Escherichia coli K1, Acinetobacter baumannii, Pseudomonas aeruginosa, Salmonella enteritidis, Salmonella typhimurium, and Klebsiella pneumoniae).
(§4) More specifically, 100 μL of a medium was dispensed into each well of a 96-well plate, and in the first column, an antibiotic and a peptide in 200 μL of the medium were dispensed. 1/2 serial dilution was performed from columns 1 to 11, and gram-negative and gram-positive bacteria which had been previously cultured were diluted (OD600 nm value in dilution: approximately 0.0025) and dispensed into each well. The plate was incubated in a 37° C. incubator for 4 hours, and measured at OD600 nm.

[4] = system: Klebiella pneumoniae (ATCC 13883); experiment: microbe, parasite or virus in culture; settings: for MIC: Klebsiella pneumoniae
Description: as §3, §4

Escherichia coli K1 = experiment: microbe, parasite or virus in culture; settings: Escherichia coli
Description: as §3, §4

[5] = system: Salmonela enteritidis (ATCC 13076); experiment: microbe, parasite or virus in culture; settings: Salmonella enterica
Description: as §3, §4

[6] = system: Acinetobacter baumannii (ATCC 19606); experiment: microbe, parasite or virus in culture; settings: Acinetobacter baumannii
Description: as §3, §4

[7] = system: Pseudomanas aeruginosa PAO1 (ATCC 47085D-5); experiment: microbe, parasite or virus in culture; settings: for MIC: Pseudomonas aeruginosa
Description: as §3, §4

[8] = system: Escherichia coli DH5α (ATCC PTA-4750); experiment: microbe, parasite or virus in culture; settings: Escherichia coli, 4 h
Description: as §3, §4

[9] = LPS binding affinity by Isothermal Titration Calorimeter (ITC); set-up: species or system E. coli K1; settings: for Kd: peptide binding to LPS, read-out: Kd (calculated by ITC); for LPS binding affinity (in words): compared with FP1 (wild type, WT)
Description: FPT (ADK 44-54) is denoted by wild type (WT), and peptides in which a point mutation occurred at various sites in WT were manufactured (FP3, FP5, FP6, and FP9). To increase the interaction with LPS in a residue sequence of FP3, peptides were designed based on FP3- and LPS-binding models (FP12-NH2 and FP13-NH2), and peptides were designed by additionally introducing a non-natural amino acid and an amino acid isomer (allomeric D-type amino acid) (allD FP12-NH2, allD FP13-NH2, allD FP-13-9a, allD FP-13-9w, allD FP-13-9k, and allD FP13-NH2 (AcOH)). In addition, an N-terminus PEGylated peptide (PEG-alld FP13-NH2 (AcOH)) was additionally designed, synthesized, and provided by ANYGEN, Co. Ltd. The binding affinity between each of the provided peptides and lipopolysaccharide (LPS) was confirmed through measuring the binding affinity (Kd) using Isothermal Titration Calorimeter (ITC).
Specifically, a method of analyzing binding affinity (Kd) between a peptide and LPS is as follows.
Measurement was carried out using a Malvern MicroCal PEAQ-ITC cell instrument, and the following pretreatment was carried out to confirm interaction with LPS. The amount and morphology of a sample cell are 300 μL and coin-shaped, fixed-in-place, respectively; a syringe rotation rate was 1,200 rpm; and a temperature was 30° C., 35° C. or 25° C.
Before the experiment, LPS and the peptide were previously diluted with PBS, thereby preparing 2 mM LPS and 0.2 mM peptide. 300 μL of the peptide was added into cells in the ITC instrument, which had been washed, and 40 μL of LPS was put into a syringe. After measurement conditions for ITC (temperature, number of injections) were set, the syringe was inserted into the cell, and ITC measurement was started. When the measurement was completed, analysis is performed, and the Kd values of LPS and the peptide were calculated.

[10] = colistin resistant A. baumannii
[11] = ATCC19606, read-out: MIC (μg/ml) 50%
[12] = ATCC19606, read-out: MIC (μg/ml) 80%
[13] = ATCC13883, read-out: MIC (μg/ml) 50%
[14] = ATCC13883, read-out: MIC (μg/ml) 80%
[15] = PAO1, read-out: MIC (μg/ml) 50%
[16] = PAO1, read-out: MIC (μg/ml) 80%

Row | Compound | MIC ([3]; read-out: MIC (μg/ml) 50%) | MIC ([3]; read-out: MIC (μg/ml) 80%) | MIC (Escherichia coli K1; K1, read-out: MIC (μg/ml) 50%) | MIC (Escherichia coli K1; K1, read-out: MIC (μg/ml) 80%) | MIC ([5]; read-out: MIC (μg/ml) 50%) | MIC ([5]; read-out: MIC (μg/ml) 80%) | MIC [6, 11] | MIC [6, 12] | MIC ([8]; read-out: MIC (μg/ml) 50%) | MIC ([8]; read-out: MIC (μg/ml) 80%) | Kd [9] | LPS binding affinity (in words) [9] | further results
1 | CC1(C)S[C@@H]2[C@H](NC(=O)[C@H](N)c3ccccc3)C(=O)N2[C@H]1C(=O)O [Ampicillin, ampicillin] | < 1 µg/mL | < 2 µg/mL | < 4 µg/mL | < 8 µg/mL | < 4 µg/mL | < 8 µg/mL | < 32 µg/mL | < 64 µg/mL | < 2 µg/mL | < 4 µg/mL |  |  | MIC50 ([1]; read-out: MIC50, Carbapenem resistant (CR)-Acinetobactor baumannii): < 16 µg/mL; MIC50, Colistin resistant AB [2, 10]: No effect; MIC50, ESBL (E. coli) (ESBL (E. coli); ESBL E. coli): No effect; MIC50, CR-Klebsiella pneumoniae (CR-Klebsiella pneumoniae; CR-K. pneumoniae): No effect; MIC (μg/ml) 50% ([4]; Klebsiella pneumoniae ATCC 13883, 50% growth inhibition): no effect; MIC (μg/ml) 80% ([4]; Klebsiella pneumoniae ATCC 13883, 80% growth inhibition): no effect; MIC (μg/ml) 50% ([7]; Pseudomonas aeruginosa PAO1, 50% growth inhibition): no effect; MIC (μg/ml) 80% ([7]; Pseudomonas aeruginosa PAO1, 80% growth inhibition): no effect
2 | C[C@@H](O)[C@H]1C(=O)N2C(C(=O)O)=C(SCCN=CN)C[C@H]12 [Imipenem, imipenem] | < 4 µg/mL | < 8 µg/mL | < 0.5 µg/mL | < 1 µg/mL | < 4 µg/mL | < 8 µg/mL | < 8 µg/mL | < 15 µg/mL | < 4 µg/mL | < 8 µg/mL |  |  | MIC50, Carbapenem resistant (CR)-Acinetobactor baumannii ([1]; CR-A. baumannii): No effect; MIC50, Colistin resistant AB [2, 10]: No effect; MIC50, ESBL (E. coli) (ESBL (E. coli); ESBL E. coli): No effect; MIC50, CR-Klebsiella pneumoniae (CR-Klebsiella pneumoniae; CR-K. pneumoniae): No effect; MIC [4, 13]: < 2 µg/mL; MIC [4, 14]: < 8 µg/mL; MIC [7, 15]: < 32 µg/mL; MIC [7, 16]: < 64 µg/mL
3 | C[C@H]1COc2c(N3CCN(C)CC3)c(F)cc3c(=O)c(C(=O)O)cn1c23 [Levofloxacin, levofloxacin] | < 0.5 µg/mL | < 1 µg/mL | < 0.5 µg/mL | < 1 µg/mL | < 0.5 µg/mL | < 1 µg/mL | < 0.5 µg/mL | < 1 µg/mL | < 0.5 µg/mL | < 1 µg/mL |  |  | MIC [4, 13]: < 0.5 µg/mL; MIC [4, 14]: < 1 µg/mL; MIC [7, 15]: < 0.5 µg/mL; MIC [7, 16]: < 1 µg/mL
4 | CC(C)C[C@@H](NC(=O)[C@H](N)CCCNC(=N)N)C(=O)N[C@H](CCCNC(=N)N)C(=O)N[C@@H](C(=O)N[C@H](CCCCN)C(=O)N[C@H](CC(C)C)C(=O)N[C@H](CCCNC(=N)N)C(=O)N[C@H](CCCNC(=N)N)C(=O)N[C@H](Cc1c[nH]c2ccccc12)C(=O)N[C@H](CC(C)C)C(=O)N[C@H](CCCNC(=N)N)C(N)=O)C(C)C [allD FP21-NH2] (H-[dR][dL][dR][dV][dK][dL][dR][dR][dW][dL][dR]-NH2; N-terminus assumed) |  |  |  |  |  |  |  |  |  |  |  |  | MIC50, Carbapenem resistant (CR)-Acinetobactor baumannii [1]: <1 µg/mL; MIC50, Colistin resistant AB [2]: <4 µg/mL; MIC50, ESBL (E. coli) (ESBL (E. coli); ESBL): <0.5 µg/mL; MIC50, CR-Klebsiella pneumoniae (CR-Klebsiella pneumoniae; CR-): <4 µg/mL
5 | KLGVEAKRYLD [FP1(WT), reference compound] |  |  |  |  |  |  |  |  |  |  | 238 µM |  | 
6 | KLGVEAKRYLR [FP3] |  |  |  |  |  |  |  |  |  |  | 332 µM | strong LPS binding affinity | 
7 | KLGVEALRYLD [FP9] |  |  |  |  |  |  |  |  |  |  | 326 µM | strong LPS binding affinity | 
8 | KLRVKLRRWLR [allD FP-13-9w-NH2] |  |  |  |  |  |  |  |  |  |  | 17.4 µM | strong LPS binding affinity | 
